This passage reports solubility results from patent US20240174669A1, “CRYSTALLINE FORMS OF A PARP1 INHIBITOR” (XinThera, Inc., priority 2022, published 2024).

Molecules are shown by their SMILES. ≈ marks a conversion by molar mass, not a printed value.

The nature of this data set: Solubility estimation at RT by visual observation in solvent systems. As to conditions: organic solvent or mixture, thermodynamic from solid. Type of data set: physicochemical. The procedure: The solubility of compound 1 was estimated at RT by visual observation in 11 solvent systems. Approximately 5 mg solids were weighed into 8 mL glass vial, and then solvent was added stepwise until solids were dissolved completely or a total of solvent volume reached 5 mL. […] The solubility was estimated and for reference only.

By solubility is commonly meant the concentration that dissolves in the medium under given conditions. Turning to `CNC(=O)c1ccc(N2CCN(Cc3cnc4cc(C5CC5)c(=O)[nH]c4c3)CC2)cn1` [Starting material, 5-(4-((7-cyclopropyl-6-oxo-5,6-dihydro-1,5-naphthyridin-3-yl)methyl)piperazin-1-yl)-N-methylpicolinamide], the solubility runs as follows: (most of the 11 tested solvent systems, RT, most tested solvents, except DMSO) less than 5000 µg/mL; (estimated at RT, visual observation, DMSO) 20000 to 50000 µg/mL (≈ 47.8 to 119 mM); (estimated at RT, Acetone, ACN, Toluene, EA, n-Heptane, Water, Anisole, DCM, THF) less than 1000 µg/mL; (estimated, visual observation, MeOH, THF (50° C.)) 1000 to 5000 µg/mL (≈ 2.39 to 11.9 mM).
